Reference: ChEMBL document CHEMBL5226390, “Synthesis and Structure-Activity Analysis of Icaritin Derivatives as Potential Tumor Growth Inhibitors of Hepatocellular Carcinoma Cells” (J Nat Prod, 2023)
pIC50: −log10 of the molar value.

Assays:
Type in all cases: functional, cell-based
[1] = system: SMMC-7721; assay: Antiproliferative activity against human SMMC-7721 cells assessed as reduction in cell viability incubated for 48 hrs by MTT assay; conditions: for pIC50: Homo sapiens, SMMC-7721, 48 h, read-out: IC50; for IC50: smmc-7721
[2] = system: HepG2; assay: Antiproliferative activity against human HepG2 cells assessed as reduction in cell viability incubated for 48 hrs by MTT assay; conditions: HepG2, 48 h
[3] = system: Hep 3B2; assay: Antiproliferative activity against human Hep3B cells assessed as reduction in cell viability incubated for 48 hrs by MTT assay

| Compound | pIC50 [1] | pIC50 [2] | IC50 [1] | pIC50 [3] |
| --- | --- | --- | --- | --- |
| CNC(=O)c1cc(Oc2ccc(NC(=O)Nc3ccc(Cl)c(C(F)(F)F)c3)cc2)ccn1 [SORAFENIB] | 5.06 | 5.26 | – | 5.11 |
| COc1ccc(-c2oc3c(CC=C(C)C)c(OCCCN4CCC(N5CCCCC5)CC4)cc(O)c3c(=O)c2O[C@H]2O[C@H](C)[C@@H](O)[C@H](O)[C@@H]2O)cc1 | < 5.00 | 5.18 | – | 5.25 |
| CCN(CC)C[C@@H](O)COc1cc(O)c2c(=O)c(O[C@H]3O[C@H](C)[C@@H](O)[C@H](O)[C@@H]3O)c(-c3ccc(OC)cc3)oc2c1CC=C(C)C | < 5.00 | < 5.00 | – | 5.08 |
| COc1ccc(-c2oc3c(CC=C(C)C)c(OCCN)cc(O)c3c(=O)c2O[C@H]2O[C@H](C)[C@@H](O)[C@H](O)[C@@H]2O)cc1 | – | < 5.00 | Not Active | < 5.00 |
| COc1ccc(-c2oc3c(CC=C(C)C)c(OCCCC(=O)NO)cc(O)c3c(=O)c2O[C@H]2O[C@H](C)[C@@H](O)[C@H](O)[C@@H]2O)cc1 | < 5.00 | < 5.00 | – | < 5.00 |
| COc1ccc(-c2oc3c(CC=C(C)C)c(OCCCN(C)C)cc(O)c3c(=O)c2O[C@H]2O[C@H](C)[C@@H](O)[C@H](O)[C@@H]2O)cc1 | – | < 5.00 | Not Active | < 5.00 |
| COc1ccc(-c2oc3c(CC=C(C)C)c(OCCCCN4CCC(N5CCCCC5)CC4)cc(O)c3c(=O)c2O[C@H]2O[C@H](C)[C@@H](O)[C@H](O)[C@@H]2O)cc1 | 5.19 | 5.12 | – | 5.41 |
| COc1ccc(-c2oc3c(CC=C(C)C)c(OCCN4CCC(N5CCCCC5)CC4)cc(O)c3c(=O)c2O[C@H]2O[C@H](C)[C@@H](O)[C@H](O)[C@@H]2O)cc1 | – | < 5.00 | Not Active | < 5.00 |
| CCN(CC)CCCCOc1cc(O)c2c(=O)c(O[C@H]3O[C@H](C)[C@@H](O)[C@H](O)[C@@H]3O)c(-c3ccc(OC)cc3)oc2c1CC=C(C)C | 5.19 | 5.42 | – | 5.27 |
| CCCCN(CCCC)CCCOc1cc(O)c2c(=O)c(O[C@H]3O[C@H](C)[C@@H](O)[C@H](O)[C@@H]3O)c(-c3ccc(OC)cc3)oc2c1CC=C(C)C | – | < 5.00 | Not Active | 5.03 |
| COc1ccc(-c2oc3c(CC=C(C)C)c(OCCN(C)C)cc(O)c3c(=O)c2O[C@H]2O[C@H](C)[C@@H](O)[C@H](O)[C@@H]2O)cc1 | – | 5.04 | Not Active | < 5.00 |
| CCN(CC)CCOCCOCCOCCOc1cc(O)c2c(=O)c(O[C@H]3O[C@H](C)[C@@H](O)[C@H](O)[C@@H]3O)c(-c3ccc(OC)cc3)oc2c1CC=C(C)C | < 5.00 | 5.15 | – | 5.14 |
| COc1ccc(-c2oc3c(CC=C(C)C)c(OCCCCN)cc(O)c3c(=O)c2O[C@H]2O[C@H](C)[C@@H](O)[C@H](O)[C@@H]2O)cc1 | < 5.00 | 5.33 | – | 5.31 |
| CCN(CC)CCOc1cc(O)c2c(=O)c(O[C@H]3O[C@H](C)[C@@H](O)[C@H](O)[C@@H]3O)c(-c3ccc(OC)cc3)oc2c1CC=C(C)C | – | < 5.00 | Not Active | < 5.00 |
| CCCCN(CCCC)CCCCOc1cc(O)c2c(=O)c(O[C@H]3O[C@H](C)[C@@H](O)[C@H](O)[C@@H]3O)c(-c3ccc(OC)cc3)oc2c1CC=C(C)C | – | 5.01 | Not Active | < 5.00 |
| CCCCN(CCCC)CCOc1cc(O)c2c(=O)c(O[C@H]3O[C@H](C)[C@@H](O)[C@H](O)[C@@H]3O)c(-c3ccc(OC)cc3)oc2c1CC=C(C)C | – | < 5.00 | Not Active | < 5.00 |
| COc1ccc(-c2oc3c(CC=C(C)C)c(OCCCCC(=O)NO)cc(O)c3c(=O)c2O[C@H]2O[C@H](C)[C@@H](O)[C@H](O)[C@@H]2O)cc1 | < 5.00 | < 5.00 | – | < 5.00 |
| COc1ccc(-c2oc3c(CC=C(C)C)c(OCCCCN(C)C)cc(O)c3c(=O)c2O[C@H]2O[C@H](C)[C@@H](O)[C@H](O)[C@@H]2O)cc1 | – | < 5.00 | Not Active | 5.06 |
| COc1ccc(-c2oc3c(CC=C(C)C)c(OC[C@H](O)CN(C)C)cc(O)c3c(=O)c2O[C@H]2O[C@H](C)[C@@H](O)[C@H](O)[C@@H]2O)cc1 | < 5.00 | < 5.00 | – | < 5.00 |
| COc1ccc(-c2oc3c(CC=C(C)C)c(OCCCN)cc(O)c3c(=O)c2O[C@H]2O[C@H](C)[C@@H](O)[C@H](O)[C@@H]2O)cc1 | – | < 5.00 | Not Active | < 5.00 |
| CCN(CC)CCCOc1cc(O)c2c(=O)c(O[C@H]3O[C@H](C)[C@@H](O)[C@H](O)[C@@H]3O)c(-c3ccc(OC)cc3)oc2c1CC=C(C)C | < 5.00 | 5.26 | – | < 5.00 |

More lines, main results first:

| pIC50 [1] | pIC50 [2] | IC50 [1] | Compound | pIC50 [3] |
| --- | --- | --- | --- | --- |
| 5.32 | 5.60 | – | COc1ccc(-c2oc3c(CC=C(C)C)c(OCCCCCCN4CCCC4)cc(O)c3c(=O)c2O[C@H]2O[C@H](C)[C@@H](O)[C@H](O)[C@@H]2O)cc1 | 5.12 |
| – | < 5.00 | Not Active | COc1ccc(-c2oc3c(CC=C(C)C)c(OCCCN4CCNCC4)cc(O)c3c(=O)c2O[C@H]2O[C@H](C)[C@@H](O)[C@H](O)[C@@H]2O)cc1 | 5.42 |
| – | < 5.00 | Not Active | COc1ccc(-c2oc3c(CC=C(C)C)c(OCCN4CCC(O)CC4)cc(O)c3c(=O)c2O[C@H]2O[C@H](C)[C@@H](O)[C@H](O)[C@@H]2O)cc1 | < 5.00 |
| – | < 5.00 | Not Active | COc1ccc(-c2oc3c(CC=C(C)C)c(OCCCN4CCC(C)CC4)cc(O)c3c(=O)c2O[C@H]2O[C@H](C)[C@@H](O)[C@H](O)[C@@H]2O)cc1 | < 5.00 |
| < 5.00 | < 5.00 | – | COc1ccc(-c2oc3c(CC=C(C)C)c(OCCOCCOCCOCCN4CCCC4)cc(O)c3c(=O)c2O[C@H]2O[C@H](C)[C@@H](O)[C@H](O)[C@@H]2O)cc1 | 5.01 |
| – | < 5.00 | Not Active | COc1ccc(-c2oc3c(CC=C(C)C)c(OCCOCCN4CCNCC4)cc(O)c3c(=O)c2O[C@H]2O[C@H](C)[C@@H](O)[C@H](O)[C@@H]2O)cc1 | < 5.00 |
| 5.15 | 5.19 | – | COc1ccc(-c2oc3c(CC=C(C)C)c(OCCCCN4CCC(O)CC4)cc(O)c3c(=O)c2O[C@H]2O[C@H](C)[C@@H](O)[C@H](O)[C@@H]2O)cc1 | 5.24 |
| – | < 5.00 | Not Active | COc1ccc(-c2oc3c(CC=C(C)C)c(OCCOCCN4CCC(O)CC4)cc(O)c3c(=O)c2O[C@H]2O[C@H](C)[C@@H](O)[C@H](O)[C@@H]2O)cc1 | < 5.00 |
| 5.07 | 5.07 | – | COc1ccc(-c2oc3c(CC=C(C)C)c(OCCOCCN4CCCC4)cc(O)c3c(=O)c2O[C@H]2O[C@H](C)[C@@H](O)[C@H](O)[C@@H]2O)cc1 | 5.19 |
| < 5.00 | < 5.00 | – | COc1ccc(-c2oc3c(CC=C(C)C)c(OC[C@H](O)CN4CCCC4)cc(O)c3c(=O)c2O[C@H]2O[C@H](C)[C@@H](O)[C@H](O)[C@@H]2O)cc1 | < 5.00 |
| – | < 5.00 | Not Active | COc1ccc(-c2oc3c(CC=C(C)C)c(OCCN4CCC(C)CC4)cc(O)c3c(=O)c2O[C@H]2O[C@H](C)[C@@H](O)[C@H](O)[C@@H]2O)cc1 | < 5.00 |
| – | < 5.00 | Not Active | COc1ccc(-c2oc3c(CC=C(C)C)c(OCCN4CCNCC4)cc(O)c3c(=O)c2O[C@H]2O[C@H](C)[C@@H](O)[C@H](O)[C@@H]2O)cc1 | < 5.00 |
| < 5.00 | < 5.00 | – | COc1ccc(-c2oc3c(CC=C(C)C)c(OCCOCCOCCN4CCCC4)cc(O)c3c(=O)c2O[C@H]2O[C@H](C)[C@@H](O)[C@H](O)[C@@H]2O)cc1 | < 5.00 |
| – | < 5.00 | Not Active | COc1ccc(-c2oc3c(CC=C(C)C)c(OCCCCN4CCOCC4)cc(O)c3c(=O)c2O[C@H]2O[C@H](C)[C@@H](O)[C@H](O)[C@@H]2O)cc1 | < 5.00 |
| – | < 5.00 | Not Active | COc1ccc(-c2oc3c(CC=C(C)C)c(OCCOCCN4CCOCC4)cc(O)c3c(=O)c2O[C@H]2O[C@H](C)[C@@H](O)[C@H](O)[C@@H]2O)cc1 | < 5.00 |
| – | < 5.00 | Not Active | COc1ccc(-c2oc3c(CC=C(C)C)c(OCCCCN4CCC(C)CC4)cc(O)c3c(=O)c2O[C@H]2O[C@H](C)[C@@H](O)[C@H](O)[C@@H]2O)cc1 | < 5.00 |
| – | < 5.00 | Not Active | COc1ccc(-c2oc3c(CC=C(C)C)c(OCCCN4CCC(O)CC4)cc(O)c3c(=O)c2O[C@H]2O[C@H](C)[C@@H](O)[C@H](O)[C@@H]2O)cc1 | 5.07 |
| – | 5.13 | Not Active | COc1ccc(-c2oc3c(CC=C(C)C)c(OCCCCN4CCNCC4)cc(O)c3c(=O)c2O[C@H]2O[C@H](C)[C@@H](O)[C@H](O)[C@@H]2O)cc1 | 5.10 |
| < 5.00 | < 5.00 | – | CCN(CC)CCOCCOCCOc1cc(O)c2c(=O)c(O[C@H]3O[C@H](C)[C@@H](O)[C@H](O)[C@@H]3O)c(-c3ccc(OC)cc3)oc2c1CC=C(C)C | < 5.00 |
| < 5.00 | 5.52 | – | COc1ccc(-c2oc3c(CC=C(C)C)c(OCCCCN4CCCC4)cc(O)c3c(=O)c2O[C@H]2O[C@H](C)[C@@H](O)[C@H](O)[C@@H]2O)cc1 | 5.40 |
| 5.21 | 5.20 | – | COc1ccc(-c2oc3c(CC=C(C)C)c(OCCCN4CCCC4)cc(O)c3c(=O)c2O[C@H]2O[C@H](C)[C@@H](O)[C@H](O)[C@@H]2O)cc1 | 5.12 |
| < 5.00 | 5.13 | – | COc1ccc(-c2oc3c(CC=C(C)C)c(OCCCN4CCOCC4)cc(O)c3c(=O)c2O[C@H]2O[C@H](C)[C@@H](O)[C@H](O)[C@@H]2O)cc1 | 5.10 |
| – | < 5.00 | Not Active | COc1ccc(-c2oc3c(CC=C(C)C)c(OCCN4CCOCC4)cc(O)c3c(=O)c2O[C@H]2O[C@H](C)[C@@H](O)[C@H](O)[C@@H]2O)cc1 | 5.21 |
